Some test systems named below: MALME-3M melanoma; A498 renal; NCI-H522 lung; OVCAR-8 ovarian; OVCAR-5 ovarian; ACHN renal; MOLT-4 leukemia; UACC-257 melanoma; M14 melanoma; HT29 colon.
Experiment in all cases: DTP human tumour cell line panel, 48 h

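48-hour exposure; five concentrations; linearly interpolated endpoints. Abbreviation: GI50, concentration required for 50% inhibition of growth. TGI denotes the concentration required for complete inhibition of growth.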

For `O=C(/C=C/c1ccccc1)Nc1ncc(Cc2ccccc2)s1`, the GI50 with MALME-3M melanoma is 1.08 µM; in the assay on A498 renal it was 0.24 µM; in the assay with NCI-H522 lung it was 0.112 µM; with OVCAR-8 ovarian, 0.488 µM; in the assay on OVCAR-5 ovarian, 0.469 µM; with ACHN renal, 0.4 µM. Further, the GI50 with MOLT-4 leukemia is 0.345 µM; with UACC-257 melanoma, 10.7 µM; in the assay on M14 melanoma it was 0.114 µM; in the assay on HT29 colon it was 0.138 µM. The TGI with MALME-3M melanoma is more than 100 µM; with A498 renal, 3.39 µM; in the assay on NCI-H522 lung it was 3.83 µM; with OVCAR-8 ovarian it was more than 40.9 µM; in the assay with OVCAR-5 ovarian, 35.8 µM; in the assay on ACHN renal it was 31.4 µM. Besides, the TGI is more than 100 µM in the assay on MOLT-4 leukemia, more than 100 µM with UACC-257 melanoma, 3.03 µM in the assay on M14 melanoma and more than 32.8 µM with HT29 colon.

On to `[O-]c1ccccc1[C-]=Nc1ccccc1O.[O-]c1ccccc1[C-]=Nc1ccccc1O.[O]=[U]=[O]`, for which the GI50 was 12.8 µM with MALME-3M melanoma; 22.8 µM in the assay on A498 renal; 4.01 µM in the assay on NCI-H522 lung; 14.8 µM in the assay on OVCAR-8 ovarian; 21 µM in the assay on OVCAR-5 ovarian; 9.09 µM with ACHN renal. In addition, the GI50 in the assay on MOLT-4 leukemia was 2.95 µM; in the assay with UACC-257 melanoma, 3.9 µM; in the assay with M14 melanoma, 10.2 µM; in the assay with HT29 colon it was 16 µM. The TGI is 30.1 µM in the assay on MALME-3M melanoma; 46.6 µM in the assay on A498 renal; 51.8 µM in the assay on NCI-H522 lung; 66.7 µM in the assay with OVCAR-8 ovarian; more than 100 µM with OVCAR-5 ovarian; 26.7 µM with ACHN renal. The TGI stood at 65 µM with MOLT-4 leukemia, 26.3 µM with UACC-257 melanoma, 41.7 µM in the assay with M14 melanoma and 95.3 µM with HT29 colon.

As for `C=C(C)[C@@H]1CC[C@]2(C(=O)N3CCN(C)CC3)CC[C@]3(C)[C@H](CC[C@@H]4[C@@]5(C)C/C(=C/c6ccncc6)[C@H](O)C(C)(C)[C@@H]5CC[C@]43C)[C@@H]12`, the GI50 in the assay on MALME-3M melanoma is 2.08 µM; in the assay on A498 renal, 17.4 µM; with NCI-H522 lung it was 5.24 µM; with OVCAR-8 ovarian it was 7.68 µM; in the assay with OVCAR-5 ovarian it was 6.04 µM; in the assay on ACHN renal it was 6.6 µM. Also, the GI50 in the assay with MOLT-4 leukemia was 2.36 µM; in the assay on UACC-257 melanoma, 5.45 µM; in the assay with M14 melanoma, 3.44 µM; in the assay with HT29 colon, 1.88 µM. Also, the TGI was 6.07 µM with MALME-3M melanoma; 41.1 µM in the assay on A498 renal; 25 µM in the assay on NCI-H522 lung; 30.7 µM with OVCAR-8 ovarian; 26.8 µM with OVCAR-5 ovarian; more than 100 µM with ACHN renal. In addition, the TGI came out at 11 µM with MOLT-4 leukemia, 27.8 µM in the assay with UACC-257 melanoma, 12.6 µM in the assay on M14 melanoma and 11.2 µM in the assay on HT29 colon.

In the case of `COc1ccccc1CN=C1NC(=O)/C(=C/c2ccc3ncccc3c2)S1`, the GI50 is more than 25 µM with MALME-3M melanoma; 4.49 µM with A498 renal; 4.96 µM with NCI-H522 lung; 8.17 µM in the assay with OVCAR-8 ovarian; 16.3 µM in the assay on OVCAR-5 ovarian; 7.49 µM with ACHN renal. Moreover, the GI50 in the assay on MOLT-4 leukemia was 8.17 µM; in the assay on UACC-257 melanoma, more than 25 µM; with M14 melanoma, 14.5 µM; with HT29 colon it was 8.45 µM. Also, the TGI is more than 25 µM with MALME-3M melanoma; 15.8 µM in the assay with A498 renal; 13 µM with NCI-H522 lung; more than 25 µM in the assay with OVCAR-8 ovarian; more than 25 µM in the assay with OVCAR-5 ovarian; more than 25 µM with ACHN renal. Also, the TGI in the assay on MOLT-4 leukemia was more than 19 µM; in the assay with UACC-257 melanoma it was more than 25 µM; with M14 melanoma, more than 25 µM; with HT29 colon, more than 25 µM.

As for `COc1ccc(C2CC(c3ccc4ccccc4c3)=NN2/C=C2\SC(=S)N(NC(=O)Cc3ccccc3Nc3c(Cl)cccc3Cl)C2=O)cc1` (centres undefined), the GI50 is 1.34 µM with MALME-3M melanoma; 0.302 µM in the assay with A498 renal; 0.372 µM in the assay with NCI-H522 lung; 0.693 µM in the assay with OVCAR-8 ovarian; 1.74 µM with OVCAR-5 ovarian; 0.684 µM in the assay with ACHN renal. Moreover, the GI50 was 0.473 µM in the assay with MOLT-4 leukemia, 3.86 µM with UACC-257 melanoma, 0.4 µM in the assay with M14 melanoma and 2.3 µM with HT29 colon. Also, the TGI in the assay with MALME-3M melanoma is more than 49 µM; in the assay on A498 renal it was 0.99 µM; in the assay on NCI-H522 lung, 4.76 µM; with OVCAR-8 ovarian, more than 100 µM; in the assay with OVCAR-5 ovarian, more than 45.6 µM; in the assay on ACHN renal, more than 71.5 µM. Besides, the TGI in the assay on MOLT-4 leukemia is more than 100 µM; in the assay on UACC-257 melanoma, more than 100 µM; in the assay on M14 melanoma, 5.4 µM; in the assay with HT29 colon, more than 26.3 µM.

For `O=C1C2=C(C(=O)c3c(O)ccc(O)c31)N(c1cccnc1)Cc1ccccc1O2`, the GI50 with MALME-3M melanoma is 0.164 µM; with A498 renal, 2.37 µM; with NCI-H522 lung, 0.0288 µM; in the assay with OVCAR-8 ovarian, 0.552 µM; with OVCAR-5 ovarian it was 0.564 µM; in the assay on ACHN renal, 0.0612 µM. Also, the GI50 with MOLT-4 leukemia is 0.21 µM; in the assay on UACC-257 melanoma it was 0.399 µM; in the assay on M14 melanoma, 0.26 µM; in the assay on HT29 colon, 0.313 µM. The TGI in the assay with MALME-3M melanoma worked out at 0.385 µM; with A498 renal, 5.32 µM; in the assay with NCI-H522 lung, 0.112 µM; in the assay with OVCAR-8 ovarian it was 3.43 µM; in the assay with OVCAR-5 ovarian, 1.8 µM; with ACHN renal, 0.195 µM. In addition, the TGI was 1.39 µM in the assay on UACC-257 melanoma, 0.771 µM in the assay with M14 melanoma and 4.23 µM in the assay with HT29 colon.

For `C=C(c1ccc(OC)c(/C=C/C(=O)c2cc(OC)c(OC)c(OC)c2)c1)c1cc(OC)c(OC)c(OC)c1`, the GI50 in the assay with MALME-3M melanoma is 1.88 µM; with A498 renal, 1.48 µM; in the assay on NCI-H522 lung it was 1.1 µM; in the assay on OVCAR-8 ovarian, 0.716 µM; with OVCAR-5 ovarian it was 2.07 µM; in the assay on ACHN renal it was 1.26 µM. The GI50 with MOLT-4 leukemia was 1.61 µM; in the assay with UACC-257 melanoma, 1.63 µM; with M14 melanoma, 1.59 µM; in the assay on HT29 colon, 0.628 µM. The total growth inhibition concentration (TGI) was found to be 4.45 µM with MALME-3M melanoma; 3.11 µM in the assay with A498 renal; 5.63 µM in the assay with NCI-H522 lung; 11.9 µM with OVCAR-8 ovarian; 6.14 µM with OVCAR-5 ovarian; 2.58 µM in the assay on ACHN renal. The TGI in the assay with MOLT-4 leukemia amounted to 27 µM; in the assay with UACC-257 melanoma, 5.11 µM; in the assay on M14 melanoma, 4.43 µM; in the assay on HT29 colon it was 3.15 µM.

In general, GI50 refers to the concentration that inhibits growth by half. For orientation: TGI means the concentration at which net growth stops.

For the origin of these results see PubChem BioAssay (NCI).
